{"source": "patent US20160000075A1", "about": "“USE OF PYRIMIDINES IN STIMULATION OF PLANT GROWTH AND DEVELOPMENT AND ENHANCEMENT OF STRESS TOLERANCE” (ULUDAG ÜNIVERSITESI TEKNOLOJI TRANSFER OFISI TICARET VE …, priority 2013, published 2016)", "origin": "cited, not measured here", "key": {"[1]": {"test_system": "hypoxic ischemic brain damage", "details": "infant rats exposed to hypoxic ischemic brain damage"}, "[2]": {"test_system": "learning and memory functions", "details": "experimental animals, also environmentally impoverished animals"}, "cellular regeneration": {"test_system": "cellular regeneration", "details": "compared to only using auxin in culture medium"}, "[3]": {"details": "humans"}, "[4]": {"test_system": "hypoxic and ischemic brain injuries", "details": "animal experiments and some clinical studies"}, "[5]": {"test_system": "brain lesion, rotational behaviour", "details": "uridine administered in the form of UMP"}, "tomato": {"test_system": "tomato", "details": "4 mM concentration"}, "[6]": {"test_system": "plant species such as Arabidopsis thaliana, Solanum tuberosum, Fragaria×ananassa, Medicago sativa, Triticum aestivum, Zea mays", "details": "external administration"}, "cabbage": {"test_system": "cabbage", "details": "external administration"}, "clover": {"test_system": "clover", "details": "external administration"}}}
{"smiles": "O=c1ccn([C@@H]2O[C@H](CO)[C@@H](O)[C@H]2O)c(=O)[nH]1", "note": "[uridine]", "values": [{"measurement": "level of brain damage", "setting": "[1]", "result": "significantly reduced the level of damage"}, {"measurement": "learning and memory functions", "setting": "[2]", "result": "increase learning and memory functions"}, {"measurement": "cellular regeneration", "setting": "cellular regeneration", "result": "increases cellular regeneration"}, {"measurement": "growth and branching of neurons", "setting": "neurons in the culture", "result": "increases the growth and branching of these cells"}, {"measurement": "adverse effect of intravenous dose", "setting": "[3]; intravenously, 10 g/m^2", "result": "cause shaking"}, {"measurement": "adverse effect of high oral dosage", "setting": "[3]; oral, 10 g per day", "result": "causes diarrhea"}]}
{"smiles": "C[N+](C)(C)CCOP(=O)(O)OP(=O)([O-])OC[C@H]1O[C@@H](n2ccc(N)nc2=O)[C@H](O)[C@@H]1O", "note": "[CDP-choline, cytidine-5′-diphosphate choline]", "values": [{"measurement": "damage in hypoxic and ischemic brain injuries", "setting": "[4]", "result": "reduces damage in hypoxic and ischemic brain injuries"}]}
{"smiles": "O=c1ccn([C@@H]2O[C@H](COP(=O)(O)O)[C@@H](O)[C@H]2O)c(=O)[nH]1", "note": "[UMP, uridine-5′-monophosphate]", "values": [{"measurement": "brain lesion and rotational behaviour", "setting": "[5]", "result": "ameliorated brain lesion and reduced rotational behaviour"}]}
{"smiles": "NCCCCNCCCN", "note": "[spermidine]", "values": [{"measurement": "high temperature tolerance", "setting": "tomato", "result": "increase high temperature tolerance"}]}
{"smiles": "C[N+](C)(C)CC(=O)O", "note": "[GlyBet, glycine betain]", "values": [{"measurement": "low temperature stress tolerance", "setting": "[6]", "result": "increase low temperature stress tolerance"}, {"measurement": "tolerance against frost", "setting": "cabbage", "result": "increases tolerance against frost"}, {"measurement": "tolerance against frost", "setting": "clover", "result": "increases tolerance against frost"}]}
